Measurements: publication PMC10208570, “Peptidomimetic antibiotics disrupt the lipopolysaccharide transport bridge of drug-resistant Enterobacteriaceae” (Science Advances, 2023)
In brackets after ≈: the same amount, converted by molar mass. Where a SMILES comes first, the peptide text is derived from it. Bridges are numbered along the chain shown (N, C = ends). [ ]: non-standard residue; d: D form. dHyp = O=C(O)[C@H]1C[C@H](O)CN1; dPen = CC(C)(S)[C@@H](N)C(=O)O; Pen = CC(C)(S)[C@H](N)C(=O)O; dDab = NCC[C@@H](N)C(=O)O; Dab = NCC[C@H](N)C(=O)O

What was measured:
[1] = tested on: K. pneumoniae 968733 (CST-R); test: MIC assay (CLSI); format: cell-based, Klebsiella pneumoniae
Method: (§1) MIC assays [Clinical and Laboratory Standards Institute (CLSI) methodology] and serial passage studies were performed as described by Luther et al. ([6]). […] Resistant mutants were isolated, and their MIC values were determined and sent to Microbes NG (Birmingham, United Kingdom) for whole-genome sequencing and bioinformatic analysis.

[2] = tested on: E. coli ATCC 25922 (parent / WT); test: microbe, parasite or virus in culture; settings: for MIC E. coli ATCC 25922 Parent: CLSI method, parent strain
Method: as §1

[3] = tested on: K. pneumoniae ATCC 43816 (parent / WT); test: microbe, parasite or virus in culture; settings: for MIC K. pneumoniae ATCC 43816 Parent: CLSI method, parent strain
Method: as §1

[4] = tested on: K. pneumoniae ATCC 43816 LptA Q62L mutant; test: microbe, parasite or virus in culture
Method: as §1

[5] = tested on: E. coli ATCC 25922 LptA Q62L mutant; test: microbe, parasite or virus in culture; settings: for MIC E. coli ATCC 25922 Q62L mutant: CLSI method, clone harboring LptA Q62L
Method: as §1

LptAm = biological target: T1, LptAm (Escherichia coli, UniProt P0ADV1); test: biochemical; format: binding, E. coli
T1 construct: His6-GB1 (N, cleaved yes); made in house; host or cells: E. coli BL21 (DE3)
T1 sequence (P0ADV1 28-159): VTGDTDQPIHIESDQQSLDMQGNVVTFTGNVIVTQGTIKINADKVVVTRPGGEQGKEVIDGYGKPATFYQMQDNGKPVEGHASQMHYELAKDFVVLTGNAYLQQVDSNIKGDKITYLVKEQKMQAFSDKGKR
Method: (§2) Protein stocks were purified and concentrated in buffer 1 [50 mM Na-Pi (pH 7) and 150 mM NaCl] and, if necessary, diluted to desired concentrations using buffer 2 [50 mM Na-Pi (pH 7), 150 mM NaCl, and 0.05% Tween 20]. Peptide stocks and fluorescently labeled peptide stocks were made in buffer 2. Every serial dilution consisted of 24 wells, the first well with the highest concentrate and the last well (well 24) with the lowest. First, 50 μl of buffer 2 was added to the wells 2 to 24 of each serial dilution. Then, 100 μl of concentrated unlabeled peptide/protein in their respective buffers was added to the first well. Fifty microliters were taken from the first well and added to the second well for a 1:1 serial dilution and continued for the 24 wells. […] Plates were covered with adhesive seals and left to incubate overnight at 4°C before FP measurements the next day. Anisotropy was measured using the Tecan Safire2 plate reader using a 10-nm bandwidth and setting the excitation and emission wavelengths to 635 and 670 nm, respectively. The G-factor (G) was also determined empirically as 1.094 for the instrument and included in all the anisotropy calculations.
(§3) For the indirect binding assays, r was calculated in the same manner as the direct binding assays. […] The control was subtracted from r to yield r′. Data were fit to a sigmoidal interpolation model on GraphPad Prism 9, and an IC50 was generated for each unlabeled peptide or protein measured.

LptAmQ62L = biological target: T2, LptAmQ62L (Escherichia coli, UniProt P0ADV1, Q62L); test: biochemical; format: binding, E. coli
T2 construct: His6-GB1 (N, cleaved yes); made in house; host or cells: E. coli BL21 (DE3)
T2 sequence (P0ADV1 28-159 Q62L): as the sequence (P0ADV1 28-159) above, with Q35L counted along it
Method: as §2, §3

human red blood cells = test: Haemolysis; format: cell-based; settings: PBS-washed human red blood cells; 1 h at 200 mg/liter, 37°C; OD 540 nm; versus 100% lysis control 2.5% Triton X-100; biological replicates
Method: To test their hemolytic potential, compounds were incubated in the presence of phosphate-buffered saline (PBS)–washed human red blood cells. After 1-hour incubation at 200 mg/liter and 37°C, the samples were centrifuged (3220g), the supernatants were diluted in Dulbecco’s PBS, and optical density at 540 nm was determined. The hemolysis induced by the compound was calculated versus a 100% lysis control prepared with 2.5% Triton X-100 (table S4A).

[6] = tested on: K. pneumoniae NCTC 13443 (NDM-1) (parent / WT); test: microbe, parasite or virus in culture
Method: as §1

[7] = tested on: K. pneumoniae NCTC 13443 (NDM-1) LptA Q62L mutant; test: microbe, parasite or virus in culture
Method: as §1

in vitro = format: cell-based; settings: human
Method: The cytotoxicity of compounds was determined by determining the number of viable cells using the Sigma Cell Counting Kit-8 (WST-8). HeLa cells were incubated at 37°C and 5% CO2 for 24 hours, after which the medium was replaced with fresh medium containing dilutions of compounds. […]

[8] = CLSI method, clone harboring LptA Q62L

Row | Structure (SMILES) | MIC K. pneumoniae 968733 (CST-R) Parent ([1]; CLSI method, colistin-resistant strain) | MIC E. coli ATCC 25922 Parent [2] | MIC K. pneumoniae ATCC 43816 Parent [3] | MIC K. pneumoniae ATCC 43816 Q62L mutant [4, 8] | MIC E. coli ATCC 25922 Q62L mutant [5] | IC50 (LptAm) | Ki (LptAm) | IC50 (LptAmQ62L) | Ki (LptAmQ62L) | Haemolysis % at 0.2 g/L (human red blood cells) | MIC K. pneumoniae NCTC 13443 (NDM-1) Parent ([6]; CLSI method, parent strain) | MIC K. pneumoniae NCTC 13443 (NDM-1) Q62L mutant [7, 8] | IC50 at 48 h (in vitro) | MIC ([1]; Klebsiella pneumoniae, read-out: MIC K. pneumoniae 968733 (CST-R) Parent) | MIC ([2]; Escherichia coli, ATCC25922, read-out: MIC E. coli ATCC 25922 Parent) | MIC ([3]; Klebsiella pneumoniae, ATCC43816, read-out: MIC K. pneumoniae ATCC 43816 Parent) | MIC ([6]; Klebsiella pneumoniae, NCTC13443, read-out: MIC K. pneumoniae NCTC 13443 (NDM-1) Parent) | MIC ([7]; Klebsiella pneumoniae, NCTC13443, read-out: MIC K. pneumoniae NCTC 13443 (NDM-1) Q62L mutant) | MIC ([4]; Klebsiella pneumoniae, ATCC43816, read-out: MIC K. pneumoniae ATCC 43816 Q62L mutant) | MIC ([5]; Escherichia coli, ATCC25922, read-out: MIC E. coli ATCC 25922 Q62L mutant)
1 | CC[C@@H](C)[C@@H](NC(=O)[C@H]1C[C@H](O)CN1C(=O)[C@H](N)C(C)C)C(=O)N[C@@H](C(=O)N[C@H](Cc1ccc(O)cc1)C(=O)N[C@H]1C(=O)N[C@H](CC(N)=O)C(=O)N[C@H](CCCNC(=N)N)C(=O)N[C@H](CCN)C(=O)N[C@H]([C@H](C)O)C(=O)N[C@@H](CCN)C(=O)N[C@H](CCCCN)C(=O)N[C@@H](C(=O)N[C@H](CCN)C(=O)N[C@H](CCCNC(=N)N)C(=O)N[C@H](Cc2ccc(O)cc2)C(=O)O)CSSC1(C)C)[C@H](C)O [6-enant.] (H-[dV][dHyp][dI][dT][dY][dPen][dN][dR][dDab][dT][Dab][dK][dC][dDab][dR][dY]-OH; disulfide 6-13) | >8 micrograms per milliliter | >8 micrograms per milliliter | >8 micrograms per milliliter | >8 micrograms per milliliter | >8 micrograms per milliliter |  |  |  |  |  |  |  |  |  |  |  |  |  |  | 
2 | CC[C@H](C)[C@H](NC(=O)[C@@H](NC(=O)[C@@H]1CCCN1C(=O)[C@@H](NC(=O)[C@@H]1CCCN1C(=O)[C@H](CCCCN)NC(=O)[C@@H](N)CCCCN)C(C)C)[C@@H](C)CC)C(=O)N[C@@H](Cc1ccc(O)cc1)C(=O)N[C@@H]1C(=O)N[C@@H](CC(N)=O)C(=O)N[C@@H](CCCNC(=N)N)C(=O)N[C@@H](CCN)C(=O)N[C@@H]([C@@H](C)O)C(=O)N[C@H](CCN)C(=O)N[C@@H](CCCCN)C(=O)N[C@H](C(=O)N[C@@H](CCN)C(=O)N[C@@H](CCCNC(=N)N)C(=O)N[C@@H](Cc2ccc(O)cc2)C(=O)O)CSSC1(C)C [Compound 2] (H-KKPVPIIY[Pen]NR[Dab]T[dDab]KC[Dab]RY-OH; disulfide 9-16) |  | 0.031 micrograms per milliliter | 0.125 micrograms per milliliter |  | 2 micrograms per milliliter | 12.6 ± 0.7 nM | 2.1 ± 0.1 nM | 19.3 ± 6.3 nM | 13.1 ± 4.2 nM | 0% | 0.5 micrograms per milliliter | >8 micrograms per milliliter | 60000 nM |  |  |  |  |  |  | 
3 | CNC(C)C1CCC(N)C(OC2C(N)CC(N)C(OC3OCC(C)(O)C(NC)C3O)C2O)O1 (centres unmarked) [Gentamicin, reference compound] |  |  |  |  |  |  |  |  |  |  |  |  |  | 0.5 µg/mL (≈ 1.05 µM) | 0.5 µg/mL (≈ 1.05 µM) | 0.5 µg/mL (≈ 1.05 µM) | > 8 µg/mL | > 8 µg/mL | 0.5 µg/mL (≈ 1.05 µM) | 1 µg/mL (≈ 2.09 µM)
